Among the data in ChEMBL document CHEMBL1159345, “Eudistomins W and X, two new beta-carbolines from the micronesian tunicate Eudistoma sp” (2003) are zone of inhibition values, retold here.

Common to all, as to assay type: functional
Conditions in all cases: read-out: IZ

The subject of assay [1] is Candida albicans. The assay is described as follows: Antimicrobial activity against Candida albicans at 10 ug/disk by agar diffusion assay. Background: In agar diffusion tests the substance spreads into inoculated agar from a disc or well.
Assay [2] has as its system Bacillus subtilis. The assay is described as follows: Antimicrobial activity against Bacillus subtilis at 5 ug/disk by agar diffusion assay.
Assay [3] deals with Staphylococcus aureus. The assay is described as follows: Antimicrobial activity against Staphylococcus aureus at 5 ug/disk by agar diffusion assay.
Assay [4] relates to Candida albicans. Kind of assay: Antimicrobial activity against Candida albicans at 5 ug/disk by agar diffusion assay.
The test system of assay [5] is Staphylococcus aureus. Kind of assay: Antimicrobial activity against Staphylococcus aureus at 10 ug/disk by agar diffusion assay.
Assay [6] has as its system Escherichia coli. The assay is described as follows: Antimicrobial activity against Escherichia coli at 5 ug/disk by agar diffusion assay.
The test system of assay [7] is Bacillus subtilis. Kind of assay: Antimicrobial activity against Bacillus subtilis at 10 ug/disk by agar diffusion assay.
Assay [8] has as its system Escherichia coli. The assay is described as follows: Antimicrobial activity against Escherichia coli at 10 ug/disk by agar diffusion assay.

With `CN(C)C(Cc1ccccc1)c1nccc2c1[nH]c1ccc(O)cc12` (centres undefined) [EUDISTOMIN X], the zone of inhibition at 10 µg/disc with Candida albicans [1] is 18 mm; with Staphylococcus aureus [5], 12 mm; with Bacillus subtilis [7] it was 18 mm; in the assay with Escherichia coli [8], 20 mm. In addition, the zone of inhibition at 5 µg/disc was 17 mm in the assay on Bacillus subtilis [2], 11 mm in the assay on Staphylococcus aureus [3], 17 mm with Candida albicans [4] and 15 mm with Escherichia coli [6].
`Oc1ccc2[nH]c3c([C@@H](O)Cc4ccccc4)nccc3c2c1` [EUDISTOMIN W]: the zone of inhibition at 10 µg/disc in the assay on Candida albicans [1] is 13 mm.
